In ChEMBL document CHEMBL3853342, “Design, synthesis and biological evaluation of novel benzo-α-pyrone containing piperazine derivatives as potential BRAFV600E inhibitors” (Bioorg Med Chem Lett, 2016):

Tests used:
[1] = Antiproliferative activity against human WM1361 cells assessed as cell growth inhibition after 24 hrs by MTT assay; type: functional, cell-based; conditions: WM1361, 24 h
[2] = Antiproliferative activity against human A375 cells assessed as cell growth inhibition after 24 hrs by MTT assay; type: functional, cell-based; conditions: A-375, 24 h
[3] = target: Serine/threonine-protein kinase B-raf (Homo sapiens, UniProt P15056, V600E); experiment: Inhibition of human recombinant GST-tagged BRAF catalytic domain (416 to 766 residues) V600E mutant expressed in baculovirus expression system preincubated for 1 hr followed by human full length recombinant N-terminal His-tagged MEK1 substrate addition measured after 25 mins by gel electrophoresis method
Chain of Serine/threonine-protein kinase B-raf (P15056 2-766 V600E limits assumed): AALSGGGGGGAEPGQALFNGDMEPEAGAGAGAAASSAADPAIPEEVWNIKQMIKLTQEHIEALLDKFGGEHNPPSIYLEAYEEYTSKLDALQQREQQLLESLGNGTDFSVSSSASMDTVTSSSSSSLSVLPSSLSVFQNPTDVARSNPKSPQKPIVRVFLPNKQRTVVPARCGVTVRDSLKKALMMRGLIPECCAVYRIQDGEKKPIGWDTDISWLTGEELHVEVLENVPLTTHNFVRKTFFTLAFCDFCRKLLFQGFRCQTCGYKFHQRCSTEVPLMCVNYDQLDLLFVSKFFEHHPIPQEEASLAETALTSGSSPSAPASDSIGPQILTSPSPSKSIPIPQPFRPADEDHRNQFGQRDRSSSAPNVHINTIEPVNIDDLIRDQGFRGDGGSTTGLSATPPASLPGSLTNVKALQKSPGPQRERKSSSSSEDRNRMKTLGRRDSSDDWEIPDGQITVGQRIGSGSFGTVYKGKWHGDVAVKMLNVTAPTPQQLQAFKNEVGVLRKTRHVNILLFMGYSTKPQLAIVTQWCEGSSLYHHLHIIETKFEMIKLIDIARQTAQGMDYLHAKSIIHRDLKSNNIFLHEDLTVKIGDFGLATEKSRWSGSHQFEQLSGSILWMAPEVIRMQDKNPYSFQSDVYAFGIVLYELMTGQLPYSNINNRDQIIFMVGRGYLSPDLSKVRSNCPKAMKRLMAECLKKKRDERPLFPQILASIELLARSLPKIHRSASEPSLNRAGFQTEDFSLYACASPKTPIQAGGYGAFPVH

[4] = Cytotoxicity against human 293T cells assessed as cell growth inhibition after 24 hrs by MTT assay; type: toxicity, cell-based, HEK-293T
[5] = Antiproliferative activity against human WM266.4 cells harboring BRAF V600E mutant assessed as cell growth inhibition after 24 hrs by MTT assay; type: functional, cell-based; conditions: WM 266-4, 24 h

## COc1ccccc1N1CCN(c2c(CO)c(=O)oc3ccccc23)CC1
[1]
  IC50: > 50 µM
[2]
  IC50: 20 µM
[3]
  IC50: 10.1 µM
[4]
  CC50 at 24 h: > 50 µM
[5]
  IC50: 18.3 µM

## CCN1CCN(c2c(CO)c(=O)oc3ccccc23)CC1
[1]
  IC50: > 100 µM
[2]
  IC50: > 50 µM
[3]
  IC50: > 50 µM
[4]
  CC50 at 24 h: > 50 µM
[5]
  IC50: > 50 µM

## O=c1oc2ccccc2c(N2CCN(c3ccc(Cl)c(Cl)c3)CC2)c1CO
[1]
  IC50: 42.7 µM
[2]
  IC50: 7.66 µM
[3]
  IC50: 2.56 µM
[4]
  CC50 at 24 h: > 50 µM
[5]
  IC50: 6.04 µM

## O=c1oc2ccccc2c(N2CCN(c3ccccc3)CC2)c1CO
[1]
  IC50: > 50 µM
[2]
  IC50: 17.2 µM
[3]
  IC50: 8.93 µM
[4]
  CC50 at 24 h: > 50 µM
[5]
  IC50: 16.6 µM

## O=c1oc2ccccc2c(N2CCN(c3cccc(Cl)c3)CC2)c1CO
[1]
  IC50: > 50 µM
[2]
  IC50: 40.5 µM
[3]
  IC50: 33.5 µM
[4]
  CC50 at 24 h: > 50 µM
[5]
  IC50: 46.3 µM

## COc1cccc(N2CCN(c3c(CO)c(=O)oc4ccccc34)CC2)c1
[1]
  IC50: 38.1 µM
[2]
  IC50: 6.51 µM
[3]
  IC50: 1.76 µM
[4]
  CC50 at 24 h: > 50 µM
[5]
  IC50: 5.33 µM

## COc1ccc(N2CCN(c3c(CO)c(=O)oc4ccccc34)CC2)cc1
[1]
  IC50: 40.4 µM
[2]
  IC50: 7.23 µM
[3]
  IC50: 1.84 µM
[4]
  CC50 at 24 h: > 50 µM
[5]
  IC50: 5.61 µM
